Results on 6 compounds are retold here after patent US12145947B2, “Pyrimidine based modulators and uses thereof” (Quanta Therapeutics, Inc., priority 2022, dated 2024).

For one test, the target named is T1, KRAS G12D/RAF1 (Homo sapiens, UniProt P01116, G12D).
T1 construct: His6-MBP (N, cleaved yes); made in house; host or cells: E. coli
The experiment in a line: Protein-protein interaction (PPI) HTRF assay KRAS G12D/RAF1. It counts as binding. Summed up:
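Biotinylated human KRAS (1-169; wt, G12D, G12V) or wt NRAS, GppNHp-loaded, pre-incubated 30 min RT with compound and streptavidin-d2, then His-RAF1 RBD (52-131) with anti-6His Tb cryptate added for 1 h RT. HTRF 665/615 ratio normalized to no compound (0%) and untagged RAF1 (100%); IC50.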
On the technique in general: Time-resolved FRET reads energy transfer from a long-lived donor to a nearby acceptor.

The next test deals with T2, KRAS G12V/RAF1 (Homo sapiens, UniProt P01116, G12V).
T2 construct: His6-MBP (N, cleaved yes); made in house; host or cells: E. coli
T2 sequence (P01116 with tags, fused parts or gaps isoform P01116-2 G12V): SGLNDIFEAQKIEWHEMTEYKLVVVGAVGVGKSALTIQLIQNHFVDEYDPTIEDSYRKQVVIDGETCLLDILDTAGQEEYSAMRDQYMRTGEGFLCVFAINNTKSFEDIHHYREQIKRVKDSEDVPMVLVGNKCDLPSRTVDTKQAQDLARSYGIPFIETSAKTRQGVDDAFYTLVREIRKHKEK
In words: Protein-protein interaction (PPI) HTRF assay KRAS G12V/RAF1. Particulars: Table 3; KRASG12V/RAF1. It counts as binding. The method, then:
Biotinylated KRAS wt and KRAS G12DNV proteins were expressed and purified in conditions similar to those previously reported (Tran, et al., 2021) (Zhang, et al., 2020). Briefly, KRAS (1-169) proteins were expressed in E. coli at 18° C. with an upstream TEV cleavage site (ENLFYQS (SEQ ID NO: 6)) followed an Avi tag sequence ([…] (SEQ ID NO: 7)). KRAS expression constructs contained both a His6 (SEQ ID NO: 8) and maltose-binding protein (MBP) tags at the N-terminus for Ni-NTA column purification prior to overnight TEV cleavage and MBP column purification. The avi-tagged NRAS expression construct contained both a His6 tag (SEQ ID NO: 8) and SUMO cleavage sige at the N-terminus for Ni-NTA column purification followed by His-ULPi digestion overnight. […]
When RAS proteins are in the active GTP-bound conformation, they bind the effector protein RAF1 at the N-terminus Ras-binding domain (RBD, residues 52-131) (Tran, et al., 2021). Homogenous time resolved fluorescence (HTRF) was used to monitor the interaction between wt or mutant KRAS and RAF1 or wt NRAS and RAFT. […] The intensity of the fluorescence signal emitted is proportional to binding between the two proteins. […] The fluorescence signal emitted was monitored at 665 nm and 615 nm using an Envision multimode plate reader. […]

The subject of test [1] is GP2D cells (KRAS G12D), phospho-ERK. In words: pERK In Cell Western (ICW) assay, GP2D cells. Particulars: Table 4, 3 hours. It counts as cell-based. Summed up:
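GP2D (10,000 cells/well) and AGS (5,000 cells/well) cells were treated for 3 h at 37 °C with a 10-point, ½-log dilution series (top […]). They were then fixed and immunostained for phospho-ERK. pERK signal was normalised to DRAQ5 and expressed as % of DMSO, with IC50 from a 4-parameter fit.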

T1 sequence (P01116 with tags, fused parts or gaps isoform P01116-2 G12D): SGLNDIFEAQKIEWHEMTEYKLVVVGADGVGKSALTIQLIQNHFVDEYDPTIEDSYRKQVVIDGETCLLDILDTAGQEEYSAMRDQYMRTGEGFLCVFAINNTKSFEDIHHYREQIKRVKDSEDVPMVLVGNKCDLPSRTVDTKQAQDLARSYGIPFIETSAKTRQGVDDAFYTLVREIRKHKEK

By IC50 is commonly meant the midpoint of a concentration-inhibition curve. Low readings indicate higher potency, high ones lower potency. Turning to `CN(C)C(=O)c1nn2c(c1Cl)CN(c1nc(OC[C@@]34CCCN3C[C@H](F)C4)nc(N3CC4(CCCc5sc(N)c(C#N)c54)C3)c1C#N)CCC2` [Compound 3, 5-[6-(2-amino-3-cyano-spiro[6,7-dihydro-5H-benzothiophene-4,3′-azetidine]-1′-yl)-5-cyano-2-[[(2R,8S)-2-fluoro-1,2,3,5,6,7-hexahydropyrrolizin-8-yl]methoxy]pyrimidin-4-yl]-3-chloro-N,N-dimethyl-4,6,7,8-tetrahydropyrazolo[1,5-a][1,4]diazepine-2-carboxamide], the IC50 on KRAS G12D/RAF1 (Table 2) lay within 10000 to 100000 nM; against KRAS G12D/RAF1 (Table 4), 1000 to 10000 nM; at KRAS G12V/RAF1, 10000 to 100000 nM; in test [1], 1 to 10 nM.

For `CN(C)C(=O)c1nn2c(c1Cl)CN(c1nc(OC[C@@]34CCCN3C[C@H](F)C4)nc(N3CC4(CCc5sc(N)c(C#N)c54)C3)c1C#N)CCC2` [Compound 2, 5-[6-(2-amino-3-cyano-spiro[5,6-dihydrocyclopenta[b]thiophene-4,3′-azetidine]-1′-yl)-5-cyano-2-[[(2R,8S)-2-fluoro-1,2,3,5,6,7-hexahydropyrrolizin-8-yl]methoxy]pyrimidin-4-yl]-3-chloro-N,N-dimethyl-4,6,7,8-tetrahydropyrazolo[1,5-a][1,4]diazepine-2-carboxamide], the IC50 was 100 to 1000 nM against KRAS G12D/RAF1 (Table 2), 100 to 1000 nM against KRAS G12D/RAF1 (Table 4), 1000 to 10000 nM against KRAS G12V/RAF1 and 1 to 10 nM in test [1].

`N#Cc1c(N)sc2c1C1(CC2)CN(c2nc(OC[C@@]34CCCN3C[C@H](F)C4)nc(N3C[C@H]4CC[C@@H](C3)N4)c2F)C1` [Compound 15, 2-amino-1′-[6-(3,8-diazabicyclo[3.2.1]octan-3-yl)-5-fluoro-2-[[(2R,8S)-2-fluoro-1,2,3,5,6,7-hexahydropyrrolizin-8-yl]methoxy]pyrimidin-4-yl]spiro[5,6-dihydrocyclopenta[b]thiophene-4,3′-azetidine]-3-carbonitrile]: the IC50 against KRAS G12D/RAF1 (Table 4) lay in the range of 100 to 1000 nM; in test [1], 10 to 100 nM.

Consider `Cc1nc(-c2nn3c(c2Cl)CN(c2nc(OC[C@@]45CCCN4C[C@H](F)C5)nc(N4CC5(CCc6sc(N)c(C#N)c65)C4)c2C#N)CCC3)n(C)n1` [Compound 85, 2-amino-1′-[6-[3-chloro-2-(2,5-dimethyl-1,2,4-triazol-3-yl)-4,6,7,8-tetrahydropyrazolo[1,5-a][1,4]diazepin-5-yl]-5-cyano-2-[[(2R,8S)-2-fluoro-1,2,3,5,6,7-hexahydropyrrolizin-8-yl]methoxy]pyrimidin-4-yl]spiro[5,6-dihydrocyclopenta[b]thiophene-4,3′-azetidine]-3-carbonitrile], for which the values for the IC50 (at KRAS G12D/RAF1 (Table 4); in test [1]) were 10000 to 100000 nM and 10 to 100 nM, respectively.

Consider `N#Cc1c(N2C[C@H]3CC[C@@H](C2)N3)nc(OCC2(CN3CCOCC3)CC2)nc1N1CC2(CSc3sc(N)c(C#N)c32)C1` [Compound 73, 5-amino-1′-[5-cyano-2-[[1-(morpholinomethyl)cyclopropyl]methoxy]-6-[(1R,5S)-3,8-diazabicyclo[3.2.1]octan-3-yl]pyrimidin-4-yl]spiro[2H-thieno[2,3-b]thiophene-3,3′-azetidine]-4-carbonitrile], for which the 50% inhibitory concentration (IC50) against KRAS G12D/RAF1 (Table 4) was 100 to 1000 nM; in test [1], 1 to 10 nM.

Take `N#Cc1c(N2C[C@H]3CC[C@@H](C2)N3)nc(OCC2(CN3CCOCC3)CC2)nc1N1CC2(CCCc3sc(N)c(C#N)c32)C1` [Compound 41, 2-amino-1′-[5-cyano-2-[[1-(morpholinomethyl)cyclopropyl]methoxy]-6-[(1R,5S)-3,8-diazabicyclo[3.2.1]octan-3-yl]pyrimidin-4-yl]spiro[6,7-dihydro-5H-benzothiophene-4,3′-azetidine]-3-carbonitrile]: the values for the IC50 (at KRAS G12D/RAF1 (Table 4); in test [1]) were 100 to 1000 nM and 1 to 10 nM, respectively.
